Where two headings read alike, the source gives them in different places. Starred links: 1 amine or outer side, 2 acyl side, 3 side chain; linkers in the order of their positions; H or OH if unused. Positions of bridges follow the written chain, without caps; N, C: chain ends. Non-standard residues stand in square brackets, D forms with d. Residues, ends and D or L forms follow the SMILES beside them. ξ: configuration not given here. *: point of attachment. Phe(3-(CH2)4CO) = O=C([C@H](Cc1cccc(CCCCC(=O)[*:3])c1)N[*:1])[*:2]; NMePhe(3-Cl) = CN[C@@H](Cc1cccc(Cl)c1)C(=O)O; X2 = O=C(C[C@H](N[*:1])C(F)(F)F)[*:2]; NMeF = CN[C@@H](Cc1ccccc1)C(=O)O; NMeGABA = CN(CCCC(=O)[*:2])[*:1]; NMeI = CC[C@H](C)[C@H](NC)C(=O)O; NMeβAla = CN(CCC(=O)[*:2])[*:1]; NMeL = CN[C@@H](CC(C)C)C(=O)O; ξNMeF = CNC(Cc1ccccc1)C(=O)O; NMeV = CN[C@H](C(=O)O)C(C)C; NMeS = CN[C@@H](CO)C(=O)O; NMeA = CN[C@@H](C)C(=O)O; Piperidide = C1CCN(*)CC1; dNMeA = CN[C@H](C)C(=O)O; β3hA = C[C@H](N)CC(=O)O; Sar = CNCC(=O)O; tBu = CC(C)(C)*
What was measured:
[1] = Metabolic stability in human hepatic microsome; assay type: in vitro ADME
[2] = PAMPA (parallel artificial membrane permeability assay); assay type: in vitro ADME; settings: PAMPA
Outline: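 Artificial membrane was 10% (w/v) egg lecithin plus 0.5% (w/v) cholesterol in dodecane on a PVDF filter. A 10 mM DMSO stock was added at 0.5% (v/v) to donor buffer (50 mM MOPSO, pH 6.5, 5.0% glycocholic acid). After 18 h at 37 °C, LC/MS or LC/UV gave donor and acceptor levels for Pe.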

[3] = human, microsomes, pH 7.4, CL NADPH(+)
[4] = microsomes, pH 7.4, human hepatic microsome, NADPH(+), read-out: CL NADPH(+)
[5] = membrane permeation rate (Pe), 50 mM MOPSO buffer pH 6.5 with 5.0% glycocholic acid, 37° C., 18 hours, read-out: iPAMPA Pe

| Structure (SMILES) | microsomal CLint at 1 uM [1, 3] | Papp at 18 hours, 50 µM ([2]; pH 6.5) | microsomal CLint at 1 uM [1, 4] | Papp at 18 hours, 50 µM [2, 5] | microsomal CLint at 1 uM ([1]; human, human hepatic microsomes, pH 7.4, human hepatic microsome, NADPH(+), read-out: CL NADPH(+)) |
| --- | --- | --- | --- | --- | --- |
| CC[C@H](C)[C@@H]1NC(=O)[C@H](C)N(C)C(=O)[C@H](CC(C)C)N(C)C(=O)[C@H](Cc2ccccc2)NC(=O)[C@H]([C@@H](C)O)NC(=O)[C@H](C(C)C)N(C)C(=O)[C@H](C)N(C)C(=O)CN(C)C(=O)[C@@H](C(C)C)NC(=O)C[C@@H](C(=O)N(C)C(Cc2ccccc2)C(=O)N(C)[C@@H](Cc2ccccc2)C(=O)N[C@@H](C)C(=O)N2CCCCC2)NC1=O (stereo partly drawn) [DP-293] ([dV][Sar][NMeA][NMeV]TF[NMeL][NMeA]ID[ξNMeF][NMeF]A-Piperidide; lactam N-10) | 29 µL/min/mg | 45 ×10⁻⁶ cm/s | – | – | – |
| CC[C@H](C)[C@@H]1NC(=O)[C@H](CC(C)C)N(C)C(=O)[C@H](Cc2cccc(Cl)c2)N(C)C(=O)[C@H](Cc2ccccc2)NC(=O)[C@H](CC(C)C)N(C)C(=O)[C@H](C)N(C)C(=O)[C@H]([C@@H](C)O)NC(=O)[C@H](C)N(C)C(=O)C[C@@H](C(=O)N[C@H](C(=O)N(C)[C@@H](CC(C)C)C(=O)N(C)[C@@H](Cc2ccccc2)C(=O)N[C@H](C(=O)N2CCCCC2)[C@@H](C)CC)[C@@H](C)CC)NC(=O)[C@H](C(C)C)NC1=O [DP-946] ([NMeA]T[NMeA][NMeL]F[NMePhe(3-Cl)][NMeL]IVDI[NMeL][NMeF]I-Piperidide; lactam N-10) | – | – | 15 µL/min/mg | 0.1 ×10⁻⁶ cm/s | – |
| CC[C@H](C)[C@@H]1NC(=O)[C@H](C)N(C)C(=O)[C@H]([C@@H](C)O)NC(=O)[C@H](Cc2ccccc2)N(C)C(=O)CNC(=O)[C@H](CC(C)C)N(C)C(=O)[C@H](C(C)C)NC(=O)[C@H](CC(C)C)N(C)C(=O)[C@H](Cc2ccccc2)NC(=O)[C@H](C)N(C)C(=O)CCCN(C)C(=O)C[C@@H](C(=O)N2CCCCC2)NC1=O [DP-108] ([NMeGABA][NMeA]F[NMeL]V[NMeL]G[NMeF]T[NMeA]ID-Piperidide; lactam N-12) | – | – | 48 µL/min/mg | 22 ×10⁻⁶ cm/s | – |
| CC(C)C[C@@H]1NC(=O)[C@H](CC(C)C)N(C)C(=O)[C@H](COC(C)(C)C)NC(=O)[C@H](Cc2ccccc2)N(C)C(=O)[C@H](C)N(C)C(=O)C[C@@H](C(=O)N2CCCCC2)NC(=O)[C@H](CC(C)C)N(C)C(=O)[C@H]([C@@H](C)O)NC1=O [DP-698] ([NMeA][NMeF]S(tBu)[NMeL]LT[NMeL]D-Piperidide; lactam N-8) | – | – | 142 µL/min/mg | 31 ×10⁻⁶ cm/s | – |
| CC[C@H](C)[C@H]1C(=O)N[C@H](C(=O)N2CCCCC2)Cc2cccc(c2)CCCCC(=O)N[C@@H](CC(C)C)C(=O)N2CCC[C@H]2C(=O)N(C)[C@@H](C(C)C)C(=O)N[C@@H](Cc2ccccc2)C(=O)N(C)[C@@H](Cc2ccccc2)C(=O)N(C)[C@@H](CC(C)C)C(=O)N[C@@H](C)C(=O)N1C [DP-872] (LP[NMeV]F[NMeF][NMeL]A[NMeI][Phe(3-(CH2)4CO)]-Piperidide; lactam N-9) | – | – | 397 µL/min/mg | 3.1 ×10⁻⁶ cm/s | – |
| CC[C@H](C)[C@H]1C(=O)N[C@@H](C)C(=O)N[C@H](C(=O)N2CCCCC2)CC(=O)N(C)[C@@H](C)C(=O)N[C@@H]([C@@H](C)O)C(=O)N(C)[C@@H](Cc2ccccc2)C(=O)N[C@@H](CC(C)C)C(=O)N2CCC[C@H]2C(=O)N(C)[C@@H](C(C)C)C(=O)N[C@@H](Cc2ccccc2)C(=O)N(C)CC(=O)N(C)[C@@H](CC(C)C)C(=O)N1C [DP-58] ([NMeA]T[NMeF]LP[NMeV]F[Sar][NMeL][NMeI]AD-Piperidide; lactam N-12) | – | – | – | 20 ×10⁻⁶ cm/s | 27 µL/min/mg |
| CC[C@H](C)[C@@H]1NC(=O)[C@H](CC(C)C)NC(=O)[C@H](CC(C)C)N(C)C(=O)[C@H](CC(C)C)NC(=O)[C@H](CC(C)C)NC(=O)[C@H](Cc2ccccc2)NC(=O)[C@H](CC(C)C)NC(=O)[C@H](Cc2ccccc2)NC(=O)[C@H]([C@@H](C)O)NC(=O)CCN(C)C(=O)C[C@@H](C(=O)N2CCCCC2)NC1=O [DP-323] ([NMeβAla]TFLFLL[NMeL]LID-Piperidide; lactam N-11) | – | – | 182 µL/min/mg | 7.8 ×10⁻⁶ cm/s | – |
| CC[C@H](C)[C@@H]1NC(=O)[C@H](C)N(C)C(=O)[C@H]([C@@H](C)O)NC(=O)[C@H](C(C)C)N(C)C(=O)[C@H](CC(C)C)NC(=O)[C@H](CC(C)C)N(C)C(=O)CN(C)C(=O)C[C@@H](C(=O)N2CCCCC2)NC(=O)[C@H](C)NC(=O)[C@H](Cc2ccccc2)NC(=O)[C@H](Cc2ccccc2)N(C)C1=O [DP-245] ([Sar][NMeL]L[NMeV]T[NMeA]I[NMeF]FAD-Piperidide; lactam N-11) | – | – | 71 µL/min/mg | 31 ×10⁻⁶ cm/s | – |
| CC(C)C[C@H]1C(=O)N(C)[C@@H](CC(C)C)C(=O)N[C@H](C(=O)N2CCCCC2)CC(=O)N[C@@H](C(C)C)C(=O)N(C)[C@@H](Cc2ccccc2)C(=O)N[C@@H]([C@@H](C)O)C(=O)N(C)CC(=O)N[C@@H](COC(C)(C)C)C(=O)N1C [DP-693] (V[NMeF]T[Sar]S(tBu)[NMeL][NMeL]D-Piperidide; lactam N-8) | – | – | 246 µL/min/mg | 35 ×10⁻⁶ cm/s | – |
| CC[C@H](C)[C@H]1C(=O)N[C@H](C(=O)N2CCCCC2)CC(=O)N(C)[C@H](C)C(=O)N(C)[C@@H](C(C)C)C(=O)N[C@@H](Cc2ccccc2)C(=O)N[C@@H](CC(C)C)C(=O)N(C)[C@@H](C)C(=O)N[C@@H]([C@@H](C)O)C(=O)N[C@@H](Cc2ccccc2)C(=O)N(C)[C@@H](CC(C)C)C(=O)N[C@@H](CC(C)C)C(=O)NCC(=O)N1C [DP-223] ([dNMeA][NMeV]FL[NMeA]TF[NMeL]LG[NMeI]D-Piperidide; lactam N-12) | – | – | 42 µL/min/mg | 23 ×10⁻⁶ cm/s | – |
| C=C1CCC(=O)N(C)[C@@H](Cc2ccccc2)C(=O)N(C)[C@@H](CC(C)C)C(=O)N[C@@H]([C@@H](C)CC)C(=O)N(C)[C@@H](C)C(=O)N(C)[C@@H](Cc2ccccc2)C(=O)N[C@@H]([C@@H](C)O)C(=O)N(C)[C@@H](C)C(=O)N(C)[C@@H](CC(C)C)C(=O)N[C@H](C(=O)N2CCCCC2)Cc2cccc1c2 [DP-834] | 501 µL/min/mg | 14 ×10⁻⁶ cm/s | – | – | – |
| CC(C)C[C@H]1C(=O)N(C)[C@@H](Cc2ccccc2)C(=O)N(C)[C@@H](CC(C)C)C(=O)N[C@@H](Cc2ccccc2)C(=O)N[C@@H]([C@@H](C)O)C(=O)N(C)[C@@H](C)C(=O)N[C@H](C(=O)N2CCCCC2)CC(=O)N(C)CCC(=O)N[C@@H](C)C(=O)N1C [DP-153] ([NMeβAla]A[NMeL][NMeF][NMeL]FT[NMeA]D-Piperidide; lactam N-9) | – | – | 179 µL/min/mg | 26 ×10⁻⁶ cm/s | – |
| CC(C)C[C@@H]1NC(=O)[C@H](CO)N(C)C(=O)C[C@@H](C(F)(F)F)NC(=O)[C@H](CC(C)C)N(C)C(=O)[C@H](CC(C)C)N(C)C(=O)[C@@H](C)NC(=O)[C@H](C)NC(=O)[C@H](CC(C)C)N(C)C(=O)[C@H](CC(C)C)NC(=O)[C@H](CC(C)C)N(C)C(=O)CN(C)C1=O [DP-657] (cyclo(A[dA][NMeL][NMeL][X2][NMeS]L[Sar][NMeL]L[NMeL])) | – | – | 157 µL/min/mg | 24 ×10⁻⁶ cm/s | – |
| CC(C)C[C@@H]1NC(=O)[C@H](CO)N(C)C(=O)[C@H](CC(C)C)N(C)C(=O)[C@H](CC(C)C)N(C)C(=O)[C@H](CC(C)C)N(C)C(=O)[C@@H](C)NC(=O)C[C@H](C)NC(=O)[C@H](CC(C)C)N(C)C(=O)[C@H](CC(C)C)NC(=O)[C@H](CC(C)C)N(C)C(=O)CN(C)C1=O [DP-639] (cyclo(L[NMeL][β3hA][dA][NMeL][NMeL][NMeL][NMeS]L[Sar][NMeL])) | – | – | 134 µL/min/mg | 33 ×10⁻⁶ cm/s | – |
| CC[C@H](C)[C@H]1C(=O)N(C)[C@@H](C)C(=O)N[C@@H](Cc2ccccc2)C(=O)N[C@@H]([C@@H](C)O)C(=O)N[C@@H](Cc2ccccc2)C(=O)N(C)[C@@H](CC(C)C)C(=O)N2CCC[C@H]2C(=O)N[C@H](C(=O)N2CCCCC2)CC(=O)N[C@@H](C)C(=O)N[C@@H](CC(C)C)C(=O)N(C)CC(=O)N[C@@H](CC(C)C)C(=O)N1C [DP-7] (AL[Sar]L[NMeI][NMeA]FTF[NMeL]PD-Piperidide; lactam N-12) | – | – | 48 µL/min/mg | 10 ×10⁻⁶ cm/s | – |
| CC(C)C[C@H]1C(=O)N(C)[C@@H](Cc2ccccc2)C(=O)NCC(=O)N(C)[C@@H](Cc2ccccc2)C(=O)N(C)[C@@H](C)C(=O)N[C@@H]([C@@H](C)O)C(=O)N[C@H](C(=O)N(C)[C@@H](Cc2ccccc2)C(=O)N(C)[C@@H](Cc2ccccc2)C(=O)N[C@@H](C)C(=O)N2CCCCC2)CC(=O)N(C)[C@H](C)C(=O)N[C@@H](C(C)C)C(=O)N1C [DP-213] ([dNMeA]V[NMeL][NMeF]G[NMeF][NMeA]TD[NMeF][NMeF]A-Piperidide; lactam N-9) | – | – | 71 µL/min/mg | 55 ×10⁻⁶ cm/s | – |
| CC(C)C[C@@H]1NC(=O)CN(C)C(=O)[C@H](CC(C)C)N(C)C(=O)[C@H]([C@@H](C)O)NC(=O)[C@H](CC(C)C)N(C)C(=O)[C@H](Cc2ccccc2)N(C)C(=O)[C@H](C(C)C)NC(=O)C[C@@H](C(=O)N2CCCCC2)NC1=O [DP-691] (V[NMeF][NMeL]T[NMeL][Sar]LD-Piperidide; lactam N-8) | – | – | 326 µL/min/mg | 33 ×10⁻⁶ cm/s | – |
| CC[C@H](C)[C@H](NC(=O)[C@H](CC(C)C)N(C)C(=O)CN(C)C(=O)[C@@H]1CC(=O)N[C@H](C(C)C)C(=O)N[C@@H](C)C(=O)N[C@@H]([C@@H](C)O)C(=O)N(C)[C@@H](C)C(=O)N[C@@H](Cc2ccccc2)C(=O)N(C)[C@@H](CC(C)C)C(=O)N(C)[C@@H](Cc2ccccc2)C(=O)N(C)[C@@H](CC(C)C)C(=O)N1)C(=O)N1CCCCC1 [DP-576] ([dV]AT[NMeA]F[NMeL][NMeF][NMeL]D[Sar][NMeL]I-Piperidide; lactam N-9) | – | – | 17 µL/min/mg | 15 ×10⁻⁶ cm/s | – |

Source: patent US9409952B2, “Peptide-compound cyclization method” (Chugai Seiyaku Kabushiki Kaisha, priority 2011, dated 2016)
